Here are results for eight compounds from article PMC12503906, “Novel Pyrazolo [1,5‐a]−1,3,5‐Triazine Derivatives as CDK7 Inhibitors: Synthesis and Biological Insights in Pancreatic Ductal Adenocarcinoma Models” (Chemmedchem, 2025).

The test system of assay [1] is PATU‐T. The assay is described as follows: SRB chemosensitivity assay, PATU‐T cells. It counts as cell-based. The following applies: read-out: IC50 PATU‐T. Here is the method:
(§1) Three lines of immortalized PDAC cells were selected as representative phenotypes: mesenchymal (PATU‐T), quasimesenchymal (PANC‐1), and an epithelial clone of SUIT 2 cells (SUIT 2.28). Cells were cultured in noncoated T‐75 and T‐25 flasks under adherent conditions, using 1× DMEM (Gibco, 41,966,029) for PATU‐T and RPMI (Gibco, 21,875,034) for SUIT 2.28 and PANC‐1, both supplemented with 10% NBCS and 1% P/S. Additional employed models were the PDAC3 cells, a primary cell culture, the PSCs, which were immortalized healthy pancreatic cells, and the PATU‐T‐GR, which was a gemcitabine resistant model of PATU‐T. PDAC3 and PSCs were cultivated using complete RPMI medium, while PATU‐T‐GR required complete DMEM medium. For seeding, cells were detached with Trypsin‐EDTA (0.05%) (GibcoTM, 25,300–096) and were consequently counted using the Automated Cell Counter (Luna‐II, Westburg). Cells were then plated on 96‐ or 6‐well plates depending on the planned experiment.
(§2) The Sulforhodamine B (SRB) chemosensitivity assay was used to measure cytotoxicity and cell proliferation post drug treatment. At day 0, 3–6 × 10^3 cells were seeded in a 96‐well plate, depending on the cell line. At day 1, cells were attached and ready to be treated. For the calculation of the IC50, drug dilutions for the compounds 1b, 1c, 1d, 1e, 1g, 1hr, 1i, 1j, and LDC4297 (MedChemExpress, HY‐12,653) were prepared in dilution trays and eight different concentrations were included. These were added in triplicates to the cells, which were then incubated for […] at 37 °C in 5% CO2. During day 1, the control plate was fixed with 50% Trichloroacetic acid (TCA), as intended to be the baseline plate used for the normalization of the data. 72 h post‐treatment, the cells were fixed with TCA, and placed at 4 °C for about 2 h. The plates were then washed with distillated water and left to dry under the hood with ventilation. Subsequently, plates were stained with 0.4% SRB for 15 min and washed with 1% acetic acid to remove excess stain. Once dried again, the protein‐bound SRB was dissolved in 10 mM TRIS, and the plates were placed on a shaker for 10 min per plate. Lastly, the absorbance was measured at 492 nm with a spectrophotometer (Synergy HT, BioTek). The absorbance data obtained were normalized to the day 1 control, and the percentage of cell growth in relation to the control was calculated using the following formula. (1) %Cell growth=Mean OD treatment−Mean OD day0/Mean OD control−Mean OD day0×100
(§3) The percentage of proliferation and their respective standard deviations were used to perform statistical analysis in GraphPad Prism software v 10 (GraphPad Software, San Diego, CA). Data were normalized to the day 0 control and to their own untreated 72 h control. These were transformed into logarithmic data, and log(inhibitor) versus response analysis was performed for obtaining the IC50 values per cell lines. Each experiment was conducted in triplicates.
For orientation: In SRB staining, fixed cells bind dye roughly in proportion to their protein.

For another assay, the system named is PANC‐1. The assay is described as follows: SRB chemosensitivity assay, PANC‐1 cells. It is filed as cell-based. The settings on record: Homo sapiens, read-out: IC50 PANC‐1. The method, then:
as §1, §2, §3

The next assay concerns SUIT 2.28. The assay is described as follows: SRB chemosensitivity assay, SUIT 2.28 cells. It counts as cell-based. The settings on record: read-out: IC50 SUIT 2.28. Here is the method: as §1, §2, §3
Assay [2] relates to CDK7. The following applies: selective inhibition of CDK7, quoted in introduction; cited from earlier work.
In assay [3] the test system is PATU‐T. As to the kind of experiment: Wound healing assay, PATU‐T. It is filed as cell-based. The settings on record: 1 × IC50 and 4 × IC50, 4 to 24 h. The method, then:
The wound healing assay was used to test the migratory ability of the selected cells post‐treatment. Cells (5 × 10^4 /well) were seeded on 96‐well. After 24 h, cells reached the optimal 100% confluency, and an artificial wound was created with a 96‐well Pintool Scratcher. The cells were immediately washed with complete medium, in order to remove cell debris after the scratch, and images of the wells were captured at time 0 h, right before the addition of the treatment. Each drug (1b and 1g) was previously diluted in the respective medium at two different concentrations: 1 × IC50 and 4 × IC50 (according to the cell specific IC50 value) and were then added to the cells. Images were then taken at timepoints 4, 8, 20, and 24 h using the Leica microscope with a JAI TMC‐137 camera to assess wound closure. The images were analyzed using the Universal Grab 6.3 software (DCILabs), and the obtained data were used to determine the percentage of migration of the cells, using the following formula. (2) % Migration=Mean width of the wound atT=0−Mean width of the wound atT=X/Mean width of the wound atT=0×100

The test system of a further assay is PDAC3. The assay is described as follows: SRB chemosensitivity assay, primary PDAC3 cells. It counts as cell-based. The following applies: PDAC-3, SRB, primary cell line, average ± SEM, triplicate; read-out: IC50 PDAC3. Here is the method: as §1, §2, §3
Another assay relates to PATU‐T GR. The assay is described as follows: SRB chemosensitivity assay, gemcitabine resistant PATU‐T GR cells. It is filed as cell-based. The settings on record: SRB, gemcitabine resistant PATU‐T GR, average ± SEM, triplicate; read-out: IC50 PATU‐GR. The method, then:
as §1, §2
The percentage of proliferation and their respective standard deviations were used to perform statistical analysis in GraphPad Prism software v 10 (GraphPad Software, San Diego, CA). Data were normalized to the day 0 control and to their own untreated 72 h control. […]

The subject of the next assay is PSC. The assay is described as follows: SRB chemosensitivity assay, pancreatic stellate cells (PSC). It is filed as cell-based. The settings on record: Fibroblast; SRB, nontumorous immortalized pancreatic fibroblasts, average ± SEM, triplicate; read-out: IC50 PSC. The method, then:
as §1
as §2, with “The plates were then washed with distillated water and left to dry under the hood with ventilation. Subsequently, plates were stained with 0.4% SRB for 15 min and washed with 1% acetic acid to remove excess stain. Once dried again, the protein‐bound SRB was dissolved in 10 mM TRIS, and the plates were placed on a shaker for 10 min per plate.” left out, “(1) %Cell growth=Mean OD treatment−Mean OD day0/Mean OD control−Mean OD day0×100” left out

The test system of the next assay is PDAC cell lines. As to the kind of experiment: SRB chemosensitivity assay, ranges over several PDAC cell lines. It counts as cell-based. The settings on record: range across the different cell lines. Here is the method: as §1, with “Cells were then plated on 96‐ or 6‐well plates depending on the planned experiment.” left out
The Sulforhodamine B (SRB) chemosensitivity assay was used to measure cytotoxicity and cell proliferation post drug treatment. […] At day 1, cells were attached and ready to be treated. […] Lastly, the absorbance was measured at 492 nm with a spectrophotometer (Synergy HT, BioTek). The absorbance data obtained were normalized to the day 1 control, and the percentage of cell growth in relation to the control was calculated using the following formula. […]

Assay [4] has as its target CDK7 (Homo sapiens, UniProt P50613). The assay is described as follows: In vitro CDK7 enzyme inhibition assay (ADP‐Glo). It counts as biochemical. Details: purchased Promega Corporation VA7402. The settings on record: ADP‐Glo assay, mean of triplicate experiments; read-out: CDK7 inhibition activity IC50.
Protocol: The CDK7 enzyme inhibition assay was conducted using the ADP‐Glo Kinase Assay (VA7402, Promega Corporation, Madison, WI, USA) according to the manufacturer's instructions. In this assay, CDK7 catalyzes the conversion of ATP to ADP. The reaction was terminated by adding the ADP‐Glo reagent, which depletes residual ATP. Subsequently, the kinase detection reagent was introduced to convert ADP back into ATP, which was then measured via a luciferase reaction, producing luminescence. The assay was carried out at room temperature, using DMSO as the solvent for the tested compounds. Each compound was tested at eight different concentrations. […] Luminescence was recorded using a BioTek plate reader (BioTek Instruments Inc.), as previously described.^[ [39] ^] The percentage of enzyme inhibition was determined for each compound at different concentrations, and mean IC50 values of triplicate experiments were calculated using GraphPad Prism.
The target in assay [5] is T1, phosphorylated CDK7 (p‐CDK7) (Homo sapiens, UniProt P50613). The assay is described as follows: Phospho‐CDK7 (Thr170) cell‐based ELISA, PDAC3. Details: endogenous in cells; host or cells: PDAC3 primary cells. The following applies: PDAC3, 4 × IC50, ELISA. Here is the method:
(§4) To detect CDK7 and phospho‐CDK7 levels at Thr170 residue after treatment, an enzyme‐linked immunosorbent assay (Biomatik, Phospho‐CDK7 (Thr170) Colorimetric Cell‐Based ELISA Kit, Cat# EKA51274) was performed according to the manufacturer's protocols. […] The absorbance was read at 450 nm using a microplate reader.
(In general: In an ELISA, binding on a coated surface is turned into a signal by an enzyme label.)

For assay [6], the target named is T1, phosphorylated CDK7 (p‐CDK7). As to the kind of experiment: Phospho‐CDK7 (Thr170) cell‐based ELISA, SUIT 2.28. On the set-up: two PDAC preclinical models (SUIT 2.28 and PDAC3); endogenous in cells; host or cells: SUIT 2.28. The settings on record: SUIT 2.28, 4 × IC50, ELISA. The method, then:
as §4

The mark [7] stands for this setting: SRB, 72 h of treatment, average ± SEM, triplicate.
Setting [8] is: PANC-1, SRB, 72 h of treatment, average ± SEM, triplicate.

SMILES strings stand for the structures. Like-named read-outs stand apart in the source and are kept apart here.

T1 sequence (P50613 2-346 limits assumed): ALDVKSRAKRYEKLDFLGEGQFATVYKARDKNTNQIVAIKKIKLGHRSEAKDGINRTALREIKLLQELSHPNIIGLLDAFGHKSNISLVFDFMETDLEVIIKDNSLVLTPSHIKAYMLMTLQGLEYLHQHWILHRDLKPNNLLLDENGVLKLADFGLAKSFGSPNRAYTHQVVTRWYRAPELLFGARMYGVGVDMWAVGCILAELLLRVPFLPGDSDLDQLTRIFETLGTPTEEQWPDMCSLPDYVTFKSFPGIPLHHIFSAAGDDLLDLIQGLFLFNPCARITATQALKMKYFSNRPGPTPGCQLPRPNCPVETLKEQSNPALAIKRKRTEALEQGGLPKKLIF
T1 sequence (P51946 whole entry partner): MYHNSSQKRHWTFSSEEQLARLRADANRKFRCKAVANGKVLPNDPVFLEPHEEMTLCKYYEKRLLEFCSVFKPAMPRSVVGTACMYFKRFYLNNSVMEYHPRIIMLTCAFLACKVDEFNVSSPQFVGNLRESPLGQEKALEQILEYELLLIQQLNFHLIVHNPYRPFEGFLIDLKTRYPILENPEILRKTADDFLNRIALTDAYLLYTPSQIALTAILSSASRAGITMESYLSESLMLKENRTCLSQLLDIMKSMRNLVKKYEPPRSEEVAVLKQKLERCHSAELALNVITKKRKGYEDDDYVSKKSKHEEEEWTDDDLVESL
T1 sequence (P51948 whole entry partner): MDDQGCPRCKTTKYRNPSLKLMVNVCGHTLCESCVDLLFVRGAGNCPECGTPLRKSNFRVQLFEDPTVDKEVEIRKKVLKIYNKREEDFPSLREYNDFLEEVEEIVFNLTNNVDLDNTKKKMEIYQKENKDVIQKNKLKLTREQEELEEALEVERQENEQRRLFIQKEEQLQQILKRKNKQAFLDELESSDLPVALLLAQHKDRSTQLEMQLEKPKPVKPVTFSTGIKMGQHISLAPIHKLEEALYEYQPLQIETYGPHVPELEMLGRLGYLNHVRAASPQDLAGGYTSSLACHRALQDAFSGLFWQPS
CDK7 (Homo sapiens, UniProt P50613), sequence (P50613 whole entry): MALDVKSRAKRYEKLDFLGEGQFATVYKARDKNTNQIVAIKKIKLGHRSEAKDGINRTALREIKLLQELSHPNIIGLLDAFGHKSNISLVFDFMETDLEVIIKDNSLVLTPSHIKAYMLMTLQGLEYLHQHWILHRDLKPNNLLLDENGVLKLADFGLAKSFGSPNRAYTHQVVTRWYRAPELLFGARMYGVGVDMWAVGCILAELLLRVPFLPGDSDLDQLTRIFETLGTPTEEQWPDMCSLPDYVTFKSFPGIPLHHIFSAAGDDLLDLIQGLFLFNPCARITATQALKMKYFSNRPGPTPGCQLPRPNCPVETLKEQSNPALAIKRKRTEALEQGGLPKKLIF
CDK7 (Homo sapiens, UniProt P50613), sequence (P51946 whole entry partner): as the sequence (P51946 whole entry partner) above
CDK7 (Homo sapiens, UniProt P50613), sequence (P51948 whole entry partner): as the sequence (P51948 whole entry partner) above

Consider `Nc1ncnc2cc(-c3c[nH]c4ccc(Cl)cc34)nn12` [Compound 1c, 7‐(5‐Chloro‐1H‐indol‐3‐yl)pyrazolo[1,5‐a][1,3,5]triazin‐4‐amine], for which the IC50 in the assay with PATU‐T [1] (setting [7]) stood at 1.9 ± 0.6 µM; in the assay on PANC‐1 (setting [8]), 8.7 ± 1.5 µM; with SUIT 2.28 (setting [7]) it was 0.4 ± 0.1 µM.
With `Cn1cc(-c2cc3ncnc(N)n3n2)c2cc(F)ccc21` [Compound 1i, 7‐(5‐Fluoro‐1‐methyl‐1H‐indol‐3‐yl)pyrazolo[1,5‐a][1,3,5]triazin‐4‐amine], the half-inhibitory concentration (IC50) in the assay with PATU‐T [1] (72 h) is 5.5 ± 1.1 µM; with PANC‐1 (PANC-1, 72 h) it was 2.2 ± 0.4 µM; in the assay on SUIT 2.28 (72 h), 0.5 ± 0.1 µM.
As to `CC(C)c1ccccc1CNc1nc(OC2CCN(C)CC2)nc2c(C(C)C)cnn12` [LDC3140], the IC50 in the assay with CDK7 [2] was under 0.005 µM.
Consider `COc1ccc2[nH]cc(-c3cc4ncnc(N)n4n3)c2c1` [Compound 1e, 7‐(5‐Methoxy‐1H‐indol‐3‐yl)pyrazolo[1,5‐a][1,3,5]triazin‐4‐amine], for which the IC50 in the assay with PATU‐T [1] (setting [7]) was found to be 4.7 ± 0.9 µM; in the assay with PANC‐1 (setting [8]) it was 8.8 ± 1.2 µM; in the assay on SUIT 2.28 (setting [7]), 0.5 ± 0.1 µM. Moreover, in the assay with PATU‐T [3], the “inhibition of cell migration” value is “greatest inhibitory effect”.
As for `CC(C)c1cnn2c(NCc3ccccc3-n3cccn3)nc(OC3CCCNC3)nc12` (stereo not shown) [LDC4297, reference compound], the IC50 in the assay on PATU‐T [1] (setting [7]) worked out at 0.03 ± 0.01 µM; with PANC‐1 (setting [8]) it was 0.02 ± 0.01 µM; in the assay on SUIT 2.28 (setting [7]), 0.03 ± 0.01 µM; in the assay with PDAC3, 0.1 ± 0.02 µM; in the assay with PATU‐T GR it was 0.45 ± 0.09 µM; in the assay with PSC, 0.11 ± 0.02 µM. Also, the IC50 in the assay with PDAC cell lines was 0.02 to 0.4 µM; in the assay on CDK7 [2], under 0.005 µM; at CDK7 [4], 0.0075 µM. The “p‐CDK7 expression vs untreated” value in [5] and in assay [6] was “significant decrease in p‐CDK7 levels” throughout.
With `COc1ccc2c(c1)c(-c1cc3ncnc(N)n3n1)cn2C` [Compound 1j, 7‐(5‐Methoxy‐1‐methyl‐1H‐indol‐3‐yl)pyrazolo[1,5‐a][1,3,5]triazin‐4‐amine], the IC50 in the assay with PATU‐T [1] (72 h) amounted to 4.7 ± 0.8 µM; in the assay with PANC‐1 (PANC-1, 72 h), 2.4 ± 0.5 µM; with SUIT 2.28 (72 h), 0.5 ± 0.1 µM.
As for `Nc1ncnc2cc(-c3c[nH]c4ccc(F)cc34)nn12` [Compound 1d, 7‐(5‐Fluoro‐1H‐indol‐3‐yl)pyrazolo[1,5‐a][1,3,5]triazin‐4‐amine], the IC50 came out at 3.5 ± 0.7 µM in the assay on PATU‐T [1] (setting [7]), 9.6 ± 0.8 µM in the assay on PANC‐1 (setting [8]) and 0.6 ± 0.1 µM with SUIT 2.28 (setting [7]).
Regarding `Cn1cc(-c2cc3ncnc(N)n3n2)c2cc(Cl)ccc21` [Compound 1h, 7‐(5‐Chloro‐1‐methyl‐1H‐indol‐3‐yl)pyrazolo[1,5‐a][1,3,5]triazin‐4‐amine], the IC50 stood at 2 ± 0.3 µM with PATU‐T [1] (72 h); 3.1 ± 0.7 µM with PANC‐1 (PANC-1, 72 h); 1.6 ± 0.3 µM in the assay on SUIT 2.28 (72 h).

For orientation: IC50 means the midpoint of a concentration-inhibition curve.
